Earlier results, collected in patent US20220356443A1, “PRODUCTION METHOD FOR CEREBRAL ORGANOID” (KEIO UNIVERSITY, priority 2019, published 2022).

Tested on: deposits of amyloid β peptide
Conditions: relative to thioflavin-T; general statement on the staining reagent

Structure (SMILES): CNc1ccc(-c2nc3ccccc3s2)cc1 [BTA-1, 2-(4′-methylaminophenyl)benzothiazole]
- affinity to deposits of amyloid β peptide, higher than that of thioflavin-T: about 50 times
